Experimental data: patent EP0221032A2, “Sodium salt of etodolic acid and process for its preparation” (priority 1985, dated 1987)
Counter-ions that a name gives are not always drawn. Like-named read-outs stand apart in the source and are kept apart here.

Tests used:
[1] = background statement on the free acid; cited from earlier work
[2] = Colour and stability of aqueous solutions of the salts (quickened ageing tests); format: physicochemical; conditions: for colour of the solutions: aqueous solutions
Experimental: (§1) In order to avail oneself of a derivative usable in therapy, it is necessary, in fact, to obtain a highly soluble substance, also considering the doses of etodolic acid which have to be administered for getting an efficient therapeutic action (at least 200 mg twice a day in the adult).

[3] = Water solubility of etodolic acid and its salts; format: physicochemical; conditions: for solubility: water
Experimental: Etodolic acid was taken into consideration as a typical representative, particularly appreciated from the pharmacological point of view, of said derivatives and some typical salts thereof were prepared.
as §1

[4] = Stability after sterilization at 120°C in autoclave for 20 min; format: physicochemical; conditions: 10% aqueous solution
Excerpt: (§2) The following tables No.1, 2 and 3 respectively show the stability data of sodium etodolate in aqueous solutions at 10% and 20% at various temperatures and again at 10% after sterilization in autoclave in a closed container.

[5] = Stability in a 10% aqueous solution at various temperatures; format: physicochemical; conditions: for remaining at 720 h / remaining at 1440 h / remaining at 2160 h: water, read-out: Titre % (HPLC)
Excerpt: as §2

[6] = Stability in a 20% aqueous solution at various temperatures; format: physicochemical; conditions: for remaining at 720 h / remaining at 1440 h / remaining at 2160 h: water, read-out: Titre % (HPLC)
Excerpt: as §2

[7] = pH of aqueous solutions of the sodium salt; format: physicochemical
Excerpt: The 20% solution has a pH of 8.7, while a 7.3% solution has a pH of 7.8.

[8] = after sterilization at 120°C in autoclave for 20 min, closed container

CCc1cccc2c3c([nH]c12)C(CC)(CC(=O)O)OCC3 (centres unmarked) [etodolic acid, 1,8-diethyl-1,3,4,9-tetrahydropyran-[3,4-b] indol-1-acetic acid]
water solubility (in words) [1]: water-insoluble

CCc1cccc2c3c([nH]c12)C(CC)(CC(=O)O)OCC3 (centres unmarked) [potassium salt, reference compound]
colour of the solutions [2]: deeply coloured | stability of the solutions ([2]; quickened ageing tests): not much stable | solubility [3]: 2%

CCc1cccc2c3c([nH]c12)C(CC)(CC(=O)O)OCC3 (centres unmarked) [sodium salt of etodolic acid, Sodium salt of etodolic acid]
colour of the solutions [2]: only fleebly yellow-coloured | stability of the solutions ([2]; during time): very stable during time | stability ([2]; most different storage and treatment conditions (summary of Tables 1-3)): quite stable | Appearance of the solution [4, 8]: limpid | Colour of the solution [4, 8]: pale yellow | pH [4, 8]: 7.8 | Appearance of the solution ([4]; at starting-point): limpid | Colour of the solution ([4]; at starting-point): pale yellow | Titre % (HPLC) ([4]; at starting-point): 100% | pH ([4]; at starting-point): 7.8 | remaining at 20 min ([4]; water, after sterilization at 120°C in autoclave for 20 min, closed container, read-out: Titre (%) (HPLC)): 100% | water solubility (in words) [3]: easily soluble in water | solubility [3]: exceed 20 % by weight | solubility ([3]; water-soluble): > 200 mg/mL | Colour ([5]; 5°C, 1 month): unchanged | pH ([5]; 5°C, 1 month): 7.8 | Colour ([5]; 5°C, 2 month): unchanged | pH ([5]; 5°C, 2 month): 7.8 | Colour ([5]; 5°C, 3 month): unchanged | pH ([5]; 5°C, 3 month): 7.75 | Colour ([5]; 25°C, 1 month): unchanged | pH ([5]; 25°C, 1 month): 7.8 | Colour ([5]; 25°C, 2 month): unchanged | pH ([5]; 25°C, 2 month): 7.85 | Colour ([5]; 25°C, 3 month): unchanged | pH ([5]; 25°C, 3 month): 7.8 | Colour ([5]; 45°C, 1 month): unchanged | pH ([5]; 45°C, 1 month): 7.8 | Colour ([5]; 45°C, 2 month): unchanged | pH ([5]; 45°C, 2 month): 7.8 | Colour ([5]; 45°C, 3 month): unchanged | pH ([5]; 45°C, 3 month): 7.7 | Colour ([5]; at starting point): pale yellow | Titre % (HPLC) ([5]; at starting point): 100% | pH ([5]; at starting point): 7.8 | remaining at 720 h ([5]; 5°C, 1 month): 99% | remaining at 1440 h ([5]; 5°C, 2 month): 100% | remaining at 2160 h ([5]; 5°C, 3 month): 100% | remaining at 720 h ([5]; 25°C, 1 month): 100% | remaining at 1440 h ([5]; 25°C, 2 month): 100% | remaining at 2160 h ([5]; 25°C, 3 month): 99% | remaining at 720 h ([5]; 45°C, 1 month): 100% | remaining at 1440 h ([5]; 45°C, 2 month): 99% | remaining at 2160 h ([5]; 45°C, 3 month): 100% | Colour ([6]; 5°C, 1 month): unchanged | pH ([6]; 5°C, 1 month): 8.7 | Colour ([6]; 5°C, 2 month): unchanged | pH ([6]; 5°C, 2 month): 8.7 | Colour ([6]; 5°C, 3 month): unchanged | pH ([6]; 5°C, 3 month): 8.6 | Colour ([6]; 25°C, 1 month): unchanged | pH ([6]; 25°C, 1 month): 8.7 | Colour ([6]; 25°C, 2 month): unchanged | pH ([6]; 25°C, 2 month): 8.6 | Colour ([6]; 25°C, 3 month): unchanged | pH ([6]; 25°C, 3 month): 8.7 | Colour ([6]; 45°C, 1 month): unchanged | pH ([6]; 45°C, 1 month): 8.6 | Colour ([6]; 45°C, 2 month): deep yellow | pH ([6]; 45°C, 2 month): 8.7 | Colour ([6]; 45°C, 3 month): deep yellow | pH ([6]; 45°C, 3 month): 8.7 | Colour ([6]; at starting point): pale yellow | Titre % (HPLC) ([6]; at starting point): 100% | pH ([6]; at starting point): 8.7 | remaining at 720 h ([6]; 5°C, 1 month): 99% | remaining at 1440 h ([6]; 5°C, 2 month): 100% | remaining at 2160 h ([6]; 5°C, 3 month): 97% | remaining at 720 h ([6]; 25°C, 1 month): 100% | remaining at 1440 h ([6]; 25°C, 2 month): 99% | remaining at 2160 h ([6]; 25°C, 3 month): 100% | remaining at 720 h ([6]; 45°C, 1 month): 99% | remaining at 1440 h ([6]; 45°C, 2 month): 98% | remaining at 2160 h ([6]; 45°C, 3 month): 98% | pH ([7]; 7.3% solution): 7.8 | pH ([7]; 20% solution): 8.7
